Experimental data reported in US20130196980A1, “[…], […] AND THERAPEUTIC AGENT FOR FIBROMYALGIA” (AXIS INC., priority 2010, published 2013).

Test system: anti-VGKC complex antibody positive patient with fibromyalgia
Assay: Pain-relieving experiment by an anticonvulsant agent (patient pain VAS)
Type: in vivo, human
Conditions: patient B; clonazepam 1.5 mg orally; non-depression type fibromyalgia, anti-VGKC complex antibody more than 100 pM
Source text: Pain-relieving experiments by an anticonvulsant agent for each anti-VGKC complex antibody positive patient with fibromyalgia
It is considered that the pain can be relieved by an anticonvulsant agent for an anti-VGKC complex antibody positive patient with fibromyalgia. Thus, for 3 patients (to whom a level of anti-VGKC complex antibody of more than 100 pM was detected) among 4 anti-VGKC complex antibody positive patients with fibromyalgia in Example 1, a pain-relieving experiment by an anticonvulsant agent for an anti-VGKC complex antibody positive patient with fibromyalgia was conducted. These patients were patients with fibromyalgia of non-depression type.
To patient A, gabapentine 900 mg and clonazepam 0.5 mg were orally administered. As a result, the value of patient pain VAS was reduced to 40 based on 100 before administration.
To patient B, clonazepam 1.5 mg was orally administered. As a result, the value of patient pain VAS was reduced to 30 based on 100 before administration.
To patient C, gabapentine 1600 mg and clonazepam 1.0 mg were orally administered. As a result, the value of patient pain VAS was reduced to 20 based on 100 before administration.

For O=C1CN=C(c2ccccc2Cl)c2cc([N+](=O)[O-])ccc2N1 [clonazepam], the “value of patient pain VAS after administration, based on 100 before administration” value was 30.
